Laboratory results taken from patent US20050059615A1, “Transmucosal dosage forms for brain-targeted steroid chemical delivery systems” (priority 2003, published 2005).

Legend:
ACTH = experiment: Suppression of stress-induced elevation of plasma ACTH (light restraint stress); format: in vivo, Sprague-Dawley rats
Protocol: (§1) Ability to suppress stress-induced ACTH and corticosterone is a measure of the anti-inflammatory action of a test substance.
(§2) Adult male Sprague-Dawley rats (Charles River Breeding Laboratories, Wilmington, Mass.) weighing 300-325 grams were selected for use in this study. The rats were housed individually in wire-bottomed cages in a climate-controlled room (23° C.) with a 12 hour light/12 hour dark cycle of artificial lighting. The animals were maintained on this light cycle for 10 days prior to the start of the experiment. Purina cat chow and tap water were provided ad libitum.
(§3) Rats then were subjected to either no stress or light restraint stress for 5 or 15 minutes on days 0, 1, 3, 5 or 7. Each experimental group consisted of six animals. For light restraint testing, the rats were placed in individual wire-mesh cages which permitted limited movement in a lateral or longitudinal direction. Nonstressed control rats were gently removed from their cages and immediately sacrificed. All animals were killed immediately at the end of the stress periods by decapitation. Trunk blood was rapidly collected in iced tubes containing EDTA, and the plasma was separated by cold centrifugation and stored at −80° C. until radioimmunoassay.
Plasma ACTH was measured in duplicate by radioimmunoassay using a double-antibody technique (Diagnostic Products Corp., Los Angeles, Calif.). The intra-assay coefficient of variation was 8.25%; and the limit of sensitivity for the assay was 17 pg/mL of plasma.
(§4) The significance of differences among mean values was determined by analysis of variance (Anova) and Student-Newman-Keuls tests. The level of probability for all tests was 0.05.

corticosterone = experiment: Suppression of stress-induced elevation of corticosterone (15-minute restraint stress); format: in vivo, Sprague-Dawley rats; conditions: 15-minute stress
Protocol: as §1, §2, §3
Plasma corticosterone was measured in duplicate by radioimmunoassay using a double-antibody technique (Cambridge Medical Tech., Inc., Billerica, Mass.). The intra-assay coefficient of variation was <2.63% and the interassay coefficient of variation was 7.1%. The limit of sensitivity for the assay was 0.39 ng/mL of plasma.
as §4

[1] = system: ovariectomized female rats; experiment: Lordosis quotient, female rat sexual behavior after ovariectomy; format: in vivo, Sprague Dawley rats
Protocol: Adult female Sprague Dawley rats (220-250 g) from Charles River Hungary Ltd., Godollo, Hungary, were used. Animals were kept in community cages (4 animals/cage) in a climate-controlled room (23∀2EC, 50-60% humidity), with a 14 hour light, 10 hour dark cycle of artificial lighting, using reversed light/dark cycle. Food and water were available ad libitum.
After a minimum five-day acclimatization period, animals were ovariectomized under ether anesthesia, then were left to recover for 3 weeks before testing (reconvalescence). All animals were treated in accordance with the guidelines of the European Communities Council Directive (86/609/EEC) and studies were permitted by the Institutional Animal Care Commission.
Estradiol benzoate and progesterone were obtained from Sigma Chemical Co. Inc., Budapest, Hungary. 2-Hydroxypropyl-β-cyclodextrin was purchased from Cerestar Inc., Hammond, Ind., US. […] E2-CDS as a 3% complex with HPβCD (E2-CDS-CD) was dissolved in distilled water and diluted with 27% HPβCD solution. E2-CDS-CD was synthesized by Alchem Laboratories Corporation, Alachua, Fla., US, using the procedure of Example 2 above.
(§5) After recovery from surgery, ovariectomized female rats were divided into four groups and treated once a day for five days intravenously, via a bolus injection through the tail vein, as follows: (1) control, 27% HPβCD solution; (2) 0.003 mg/kg E2-CDS dissolved in 27% HPβCD solution; (3) 0.01 mg/kg E2-CDS dissolved in 27% HPβCD solution; and (4) 0.03 mg/kg E2-CDS dissolved in 27% HPβCD solution. A minimal number of ovariectomized (8 to 12) females were used per group. Intravenous treatments either with E2-CDS or HPβCD (controls) were carried out daily for 5 days beginning 2 days prior to the first day of behavior observations, in a volume of 0.05 mL/100 g body weight.
The behavior test was conducted in a plexiglass observation cage during the dark cycle. During behavioral observations, only a dim red light was on.
(§6) An experienced and active male rat was placed in the arena 5 minutes prior to the female. […] The lordosis quotient (LQ) expresses the estrogen effect on sexual receptivity and was calculated as follows: LQ=100×number of lordoses/10 mounts The observation of the sexual behavior of each female was carried out, in the case of E2-CDS, every day for 22 days; in the case of EB, investigations were carried out every day for 10 days. […] Citrated blood samples were taken by retro-orbital sinus puncture under light ether anesthesia. The samples were stored at 4EC for one hour, then centrifuged at 1000 g for 10 minutes. Plasma was separated and stored at −80EC until assayed. Plasma LH concentrations from individual samples were measured by double antibody radioimmunoassay kits obtained from Amersham Pharmacia Biotech, Rome, Italy. […] The limit of detection was 15 pg/mL.
(§7) Behavioral changes were analyzed using the Mann-Whitney U test (Siegel, Nonparametric Statistics for the Behavioral Sciences, New York; McGraw-Hill Book Company, Inc., 1956). The Fisher exact test was used for percentage comparisons (Zar, Biostatistical Analysis, Prentice Hall, Inc., Englewood Cliffs, N.J., 1974). Serum LH data were analyzed for each time and treatment group by analysis of variance (ANOVA) followed by Bonferroni posthoc test.

LH = experiment: Plasma LH in ovariectomized female rats (radioimmunoassay); format: in vivo, Sprague Dawley rats; conditions: all dosage levels tested: 0.003, 0.01 and 0.03 mg/kg i.v. daily for 5 days
Protocol: as §5, §6, §7

[2] = 0.003 mg/kg i.v. once a day for 5 days
[3] = 0.01 mg/kg i.v. once a day for 5 days
[4] = 0.03 mg/kg i.v. once a day for 5 days

Row | Structure (SMILES) | effect on stress-related elevations in ACTH (ACTH; 5-minute stress, days 1 and 3, single i.v. DEX-CDS 10 mg/kg or DEX 7.65 mg/kg (equimolar)) | day through which suppression of ACTH elevations continued (ACTH; 5-minute stress, single i.v. DEX-CDS 10 mg/kg) [days] | effect on stress-related rises in ACTH (ACTH; 15-minute stress, day 3, single i.v. DEX-CDS 10 mg/kg or DEX 7.65 mg/kg) | duration of suppression of elevations in ACTH (ACTH; 15-minute stress, single i.v. DEX-CDS 10 mg/kg) | suppression of corticosterone response to stress (corticosterone; day 3, single i.v. DEX-CDS 10 mg/kg or DEX 7.65 mg/kg) [%] | suppression of corticosterone response to stress (corticosterone; day 5, single i.v. DEX-CDS 10 mg/kg) [%] | suppression of corticosterone response to stress (corticosterone; day 7, single i.v. DEX-CDS 10 mg/kg) [%] | effect on lordosis quotient [1, 2] | period of the LQ effect [1, 2] [days] | statistical significance of LQ effect [1, 2] | effect on lordosis quotient LQ [1, 3] | period of the LQ effect [1, 3] | statistical significance of LQ effect [1, 3] | effect on lordosis quotient LQ [1, 4] | maximal value of lordosis quotient (LQ) [1, 4] | period over which the LQ effect lasted [1, 4] | effect on plasma LH levels (LH)
1 | C[C@@H]1C[C@H]2[C@@H]3CCC4=CC(=O)C=C[C@]4(C)[C@@]3(F)[C@@H](O)C[C@]2(C)[C@@]1(O)C(=O)COC(=O)C1=CN(C)C=CC1 [DEX-CDS, 9-fluoro-11β,17-dihydroxy-16α-methyl-21-{[(1-methyl-1,4-dihydropyridin-3-yl)carbonyl]oxy}pregna-1,4-diene-3,20-dione] | blocked | 5 | blocked | at least 7 days | 33 | 37 | 56 | – | – | – | – | – | – | – | – | – | –
2 | C[C@]12CC[C@@H]3c4ccc(OC(=O)c5ccccc5)cc4CC[C@H]3[C@@H]1CC[C@@H]2O [estradiol benzoate, reference compound] | – | – | – | – | – | – | – | slightly enhanced | 3 to 7 | not statistically significant | slightly increased | day 3 to day 10 | not statistically significant | significantly enhanced | 27.3 | day 3 to day 8 | none of the tested dosages of estradiol benzoate gave statistically significant LH suppression
